This assay has as its system TEAD-YAP/TAZ interaction. The experiment in a line: CTGF ELISA assay. In kind it is cell-based, human. Conditions: CTGF in culture supernatant of NCI-H2052 cells, 24 hours with compound. The procedure: The detection of CTGF expression level can assessed the binding activity of TEAD-YAP/TAZ transcription factor, and the CTGF expression level was quantified by SimpleStep ELISA® kit (Abcam, ab261851).
NCI-H2052 cells (Purchased from ATCC) were cultured in RPMI 1640 medium, adding 10% FBS and 1% Penicillin-Streptomycin Solution and 1 mM Sodium pyruvate. The day before compounds treatment, the cultured cells were washed with PBS and digested with trypsin, then centrifuged and collected. Discarded the supernatant, the cells were resuspended in fresh complete medium. After cells counted, cells were seeded at 6500 cells/well in 96-well plates. And then cells were cultured overnight in incubator (37° C., 5% CO2).
After the cells were cultured overnight, discarded the culture supernatant, then washed with PBS solution, cells were incubated with 200 μl medium containing compounds in each well. The starting concentration was 10 μM and serial dilution in DMSO and medium were performed to achieve a final DMSO concentration of 0.5% (Final compounds concentration were 10000, 2500, 625, 156, 39.1, 9.77, 2.44, 0.61 nM, 0 nM (0.5% DMSO), The cells were then cultured in incubator (37° C., 5% CO2). Cultured for 24 hours, the cells were centrifuged at 1500 RPM at 4° C. for 5 minutes, and then 50 μl of culture supernatant were tested for CTGF ELISA assay.
The Human CTGF SimpleStep ELISA® Kit (Abcam, ab261851) employs an affinity tag labeled capture antibody and a reporter conjugated detector antibody which immunocapture the sample analyte in solution. This entire complex (capture antibody/analyte/detector antibody) is in turn immobilized via immunoaffinity of an anti-tag antibody coating the well. To perform the assay, samples or standards are added to the wells, followed by the antibody mix (capture antibody/detector antibody). After incubation, the wells are washed to remove unbound material. TMB Development Solution is added and during incubation is catalyzed by HRP, generating blue coloration. This reaction is then stopped by addition of Stop Solution completing any color change from blue to yellow. Signal is generated proportionally to the amount of bound analyte and the intensity is measured at 450 nm. Firstly, prepare all reagents, samples, and standards as instructed. Add 50 μl standard or sample to appropriate wells. Then add 50 μl of the Antibody Cocktail to each well. Seal the plate and incubate for 1 hour at room temperature on a plate shaker. Wash each well with Wash Buffer three times. Add 100 μl of TMB Development Solution to each well and incubate for 10 minutes in the dark on a plate shaker. Add 100 μl of Stop Solution to each well. Shake plate on a plate shaker for 1 minute to mix. Record the OD at 450 nm. Determine the concentration of the target protein in the sample by the standard curve.
EC50 value was determined by fitting the concentration response curves using GraphPad Prism software. The compounds of the present invention were tested for their capacity to inhibit TEAD-YAP/TAZ interaction according to the fitted curves of CTGF concentration response to compounds.
A general note: ELISA stands for enzyme-linked immunosorbent assay.

Here are results for 13 compounds from US20230391779A1, “BICYCLIC COMPOUNDS, COMPOSITIONS AND USE THEREOF” (Betta Pharmaceuticals Co., Ltd., priority 2020, published 2023).

By EC50 is commonly meant the concentration at which the effect is half-maximal. Take `C=CC(=O)N1CC(n2nc(-c3ccc(C(F)(F)F)cc3F)c3ncccc32)C1` [Compound 129, 1-(3-(3-(2-fluoro-4-(trifluoro-methyl)phenyl)-1H-pyrazolo[4,3-b]pyridin-1-yl)azetidin-1-yl)prop-2-en-1-one]: the EC50 was determined as 8 nM. For `C=CC(=O)N1CC(n2nc(-c3ccc(C(F)(F)F)nc3)c3ncccc32)C1` [Compound 131, 1-(3-(3-(6-(trifluoromethyl)pyr-idin-3-yl)-1H-pyrazolo[4,3-b]-pyridin-1-yl)azetidin-1-yl)prop-2-en-1-one], the EC50 is 18 nM.

`C=C(F)C(=O)N1CC(n2nc(-c3ccc(C(F)(F)F)cc3)c3nccnc32)C1` [Compound 160, 2-fluoro-1-(3-(3-(4-(trifluoro-methyl)phenyl)-1H-pyrazolo[3,4-b]pyrazin-1-yl)azetidin-1-yl)prop-2-en-1-one]: the EC50 was determined as 9 nM. As to `C=CC(=O)N1CC(n2nc(-c3ccc(C(F)(F)F)cc3)c3nccnc32)C1` [Compound 161, 1-(3-(3-(4-(trifluoromethyl)phen-yl)-1H-pyrazolo[3,4-b]pyrazin-1-yl)azetidin-1-yl)prop-2-en-1-one], the half-maximal effective concentration (EC50) was found to be 3 nM. Under `C=C(F)C(=O)N1CC(n2nc(-c3ccc(C(F)(F)F)cc3)c3ccc[n+]([O-])c32)C1` [Compound 165, 1-(1-(2-fluoroacryloyl)azetidin-3-yl)-3-(4-(trifluoromethyl)phenyl)-1H-pyrazolo[3,4-b]pyridine 7-oxide] stands 40 nM; under `C=C(F)C(=O)N1CC(n2nc(-c3ccc(C(C)C)cc3)c3cccnc32)C1` [Compound 171, 2-fluoro-1-(3-(3-(4-isopropyl-phenyl)-1H-pyrazolo[3,4-b]-pyridin-1-yl)azetidin-1-yl)prop-2-en-1-one], 148 nM.

As for `C=C(F)C(=O)N1CC(n2nc(-c3ccc(C#N)c(C(F)(F)F)c3)c3cccnc32)C1` [Compound 178, 4-(1-(1-(2-fluoroacryloyl)azetidin-3-yl)-1H-pyrazolo[3,4-b]pyridin-3-yl)-2-(trifluoromethyl)benzo-nitrile], the EC50 came out at 34 nM. Next, `C=C(F)C(=O)N1CC(n2nc(-c3cnc(C(F)(F)F)c(F)c3)c3cccnc32)C1` [Compound 184, 2-fluoro-1-(3-(3-(5-fluoro-6-(trifluoromethyl)pyridin-3-yl)-1H-pyrazolo[3,4-b]pyridin-1-yl)-azetidin-1-yl)prop-2-en-1-one]: 7.69 nM; `C=C(F)C(=O)N1CC(n2nc(-c3ccc(C(F)(F)F)cc3)c3ccc(C)nc32)C1` [Compound 186, 2-fluoro-1-(3-(6-methyl-3-(4-(trifluoromethyl)phenyl)-1H-pyrazolo[3,4-b]pyridin-1-yl)-azetidin-1-yl)prop-2-en-1-one]: 2 nM. Next, `C=C(F)C(=O)N1CC(n2nc(-c3ccc(C(F)(F)F)cc3)c3ccc(Cl)nc32)C1` [Compound 187, 1-(3-(6-chloro-3-(4-(trifluoro-methyl)phenyl)-1H-pyrazolo[3,4-b]pyridin-1-yl)azetidin-1-yl)-2-fluoroprop-2-en-1-one]: 2 nM; `C=C(F)C(=O)Nc1cc(-n2nc(-c3ccc(C(F)(F)F)cc3)c3cccnc32)ccc1OC` [Compound 188, 2-fluoro-N-(2-methoxy-5-(3-(4-(trifluoromethyl)phenyl)-1H-pyrazolo[3,4-b]pyridin-1-yl)-phenyl)acrylamide]: 0.06 nM. Under `C=CC(=O)Nc1cc(-n2nc(-c3ccc(C(F)(F)F)cc3)c3cccnc32)ccc1Cl` [Compound 189, N-(2-chloro-5-(3-(4-(trifluoro-methyl)phenyl)-1H-pyrazolo[3,4-b]pyridin-1-yl)phenyl)acrylamide] stands 24 nM.

Take `C=C(F)C(=O)N1CC(n2nc(-c3ccc(C(F)(F)F)cc3)c3ccccc32)C1` [Compound 196, 2-fluoro-1-(3-(3-(4-(trifluoro-methyl)phenyl)-1H-indazol-1-yl)azetidin-1-yl)prop-2-en-1-one]: the EC50 is 9 nM.
